Measurements reported in patent US10532082B2, “SOCS1-derived peptide for use in chronic complications of diabetes” (Fundació Hospital Universitari Vall d'Hebron-Institut de …, priority 2014, dated 2020).
Where no end group is shown, it is not given here.

Key:
STAT1 = STAT1 activation in cytokine-stimulated macrophages (Western blot); assay type: cell-based, murine; conditions: pre-incubation 50-150 ug/mL (Mut 150 ug/mL), IFNγ and IL-6 stimulation
Method: (§1) RAW264.7 macrophages and vascular smooth muscle cells (VSMC) cultured in a medium with 10% fetal bovine serum were used. The cells were synchronized (24 hours without serum), pre-incubated for 90 minutes with different peptide concentrations (miS1 or the control thereof, 50-150 μg/mL) and stimulated with cytokines (IFNγ […]). STAT activation was analyzed by means of Western blot for phosphorylated STAT1/STAT3 isoforms. JAK/STAT pathway-dependent chemokine (CCL2) expression was determined by means of ELISA. Cell viability was analyzed by MTT colorimetric assay and macrophage migration was analyzed by chemotaxis assay.

STAT3 = STAT3 activation in cytokine-stimulated macrophages (Western blot); assay type: cell-based, murine; conditions: pre-incubation 50-150 ug/mL (Mut 150 ug/mL), IFNγ and IL-6 stimulation
Method: as §1

Mut: non-functional mutated peptide, F substituted with A: SEQ ID NO 3 DTHARTARSHSDYRRI, bound to lysine-palmitate; control of the experiments (not fully specified (N-terminus)) [reference compound]
STAT1 activation (phosphorylation) (STAT1): did not cause any effect | STAT3 activation (phosphorylation) (STAT3): did not cause any effect
